The text below walks through data of US20260207758A1, “NA[…]-BASED CONJUGATE FOR […] INTO B CELL AND T CELL AND USES THEREOF” (priority 2022, published 2026).

What all share (type): cell-based
For assay [1], the system named is T cells (primary CD8+ cytotoxic T cells). Description: Binding of Cy5.5-labeled targeting peptide, confocal microscopy. The conditions noted are these: 100 μM Cy5.5-labeled peptide, 1 hour. As to the method: (§1) A B cell/T cell targeting peptide (BTBP, SEQ ID NO: 17) was labeled with Cy5.5, and B cells (primary CD19+ B cells, PCS-800-018, ATCC) and T cells (primary CD8+ cytotoxic T cells, PCS-800-017, ATCC) were treated with 100 μM of the peptide for 1 hour. Then, the cells were fixed with 4% neutral formalin solution and measured using a confocal scanning microscope (LSM980 with Airyscan2, Carl Zeiss). […] Therefore, it was confirmed that BTBP effectively targeted both the B cells and the T cells.

Assay [2] concerns B cells (primary CD19+ B cells). Described as above. The conditions noted are these: 100 μM Cy5.5-labeled peptide, 1 hour. As to the method: as §1
Assay [3] has as its system T cells (primary CD8+ cytotoxic T cells). In words: Binding of Cy5.5-labeled targeting peptide, flow cytometry. The conditions noted are these: Cy5.5-labeled peptide. As to the method:
as §1
(§2) In addition, the cells were washed three times with DPBS containing 5% FBS, and cells bound with Cy5.5-labeled BTBP were analyzed using flow cytometry (FIG. 7). As a result, it could be confirmed that the peptide of SEQ ID NO: 17 bound to B cells and T cells.
For orientation: Flow cytometry measures light scatter and fluorescence of single cells or particles in a stream.

Assay [4] has as its system B cells (primary CD19+ B cells). The assay is described as above. Particulars: Cy5.5-labeled peptide. As to the method: as §1, §2

In the case of HTHGAARVPDHR [BTBP], the “fluorescence intensity in cell membranes” value in assay [1] and in assay [2] was “significantly increased” each time. The “binding to cells by flow cytometry” value in assay [3] and in assay [4] was “bound” throughout.
